Results reported in patent US9839638B2, “Compositions and methods for protecting cells during cancer chemotherapy and radiotherapy” (Wisconsin Alumni Research Foundation, priority 2000, dated 2017).

Experiments:
[1] = system: chemoprotective/stress-related genes (GST-PI, GST-Mu2, GST-Ya, GST) in rat pup skin; experiment: Rat stress gene cDNA expression array on skin samples of treated rat pups; type: in vivo; settings: topical 15 mM for 5 days; compared to rat pups treated with cytoxan
Experimental: In brief, rat pups were treated with either CTX or B-NF and at different time intervals skin samples were collected and total RNA was extracted from them. The RNA was reverse transcribed to form the respective cDNAs in the presence of ^32P dATP using primers specific for stress-related genes. The radiolabeled cDNA synthesized was used to probe a rat stress gene cDNA expression array consisting of 207 stress-related genes (Clontech) according to the manufacturer's protocol. The hybridized membrane was exposed to a phosphorimager screen and the image obtained was aligned with an orientation grid to identify the genes that are expressed. Images from control, CTX, treated and B-NF-treated animals were compared to determine the changes, if any, in the expression pattern of chemoprotective genes under these experimental conditions.

[2] = system: CTX induced alopecia in 7 day old rat pups; experiment: Prevention of cytoxan (CTX)-induced alopecia by topical chemoprotective inducers in rat pups; type: in vivo, Sprague Dawley rats; settings: for alopecia when delivered in minoxidil vehicle (propylene glycol:ethanol:water): minoxidil carrier, compared with CTX-treated pups without inducer; for protective effect against CTX-induced hair loss (hair density): topical in nonionic liposomes day -2 to day 6, CTX i.p. day 0, scored day 7, 100% = untreated control pups
[3] = system: 7 day old rat pups (hair loss); settings: 40 μg/gm CTX i.p., 7 day old pups, examined seven days after
Experimental: Lactating Sprague Dawley rats with 12 pups per mother were purchased from Harlan Sprague Dawley. To produce CTX induced alopecia, several concentrations (35, 40 45 μg/gm body weight) of CTX in water were injected i.p. in to 7 day old pups. Seven days after CTX treatment the pups were examined to determine the degree of hair loss. The pups were gently brushed on the back to remove the loose hair sticking onto the skin and photographed. The density of hair on the pups was then determined.

SMILES | protective effect against CTX-induced hair loss (hair density) [2] [%] | further results
O=c1cc(-c2ccccc2)oc2ccc3ccccc3c12 [B-NF, β-naphthoflavone] | 80 | expression level of GST-PI, GST-Mu2, GST-Ya and GST (rat homolog of human) in skin [1]: significant increase; protective effect when applied only on the day before cytoxan ([2]; applied only on the day before cytoxan): substantial protective effect; alopecia when delivered in minoxidil vehicle (propylene glycol:ethanol:water) [2]: as severe as the untreated CTX-treated rat pups; alopecia when delivered in minoxidil vehicle (propylene glycol:ethanol:water) ([2]; listed as BNF): hair loss equivalent to that observed in cytoxan-treated animals not pre-treated
COc1ccc(O)c(C(C)(C)C)c1 [BHA] | 60 | –
O=P1(N(CCCl)CCCl)NCCCO1 (stereo not shown) [CTX] | – | hair loss induced [3]: 100%
Cc1c(-c2cnccn2)ssc1=S [Oltipraz] | 50 | –
C[S+]([O-])CCCCN=C=S (stereo not shown) [sulphoraphane] | 5 | –
CC(C)(C)c1cc(O)ccc1O [tBHQ, tert-butylhydroquinone] | 10 | –
